We go through 6 substances from paper PMC3183052, “Immunoprotectivity of HLA-A2 CTL Peptides Derived from Respiratory Syncytial Virus Fusion Protein in HLA-A2 Transgenic Mouse” (PLoS ONE, 2011).

In assay [1] the test system is splenocytes from HLA-A*0201 transgenic C57BL/6 mice. In words: IFN-γ ELISPOT of splenocytes restimulated with peptide. Format: cell-based, mouse. As to conditions: for IFN-γ ELISPOT, RSV: splenocytes of HLA-Tg B6 mice primed and boosted i.n. with 10^4 pfu RSV-B1; for IFN-γ ELISPOT, RSV / IFN-γ ELISPOT, rAd-F0: restimulated with 2 µg peptide, representative of two experiments, five mice per group; for IFN-γ ELISPOT, rAd-F0: splenocytes of HLA-Tg B6 mice primed and boosted i.n. with 10^7 pfu rAd-F0; for IFN-γ level in restimulated splenocytes (ELISPOT, text grading): splenocytes of rAd-F0- or RSV B1-primed and boosted HLA-Tg B6 mice, high = over 100 spots, moderate = over 50 spots. Here is the method: (§1) To screen the immunodominance of epitopic peptide in the induction of RSV-F specific Th1/Th2 expression, HLA-A*0201 transgenic C57BL/6 mice were anesthetized with isoflurane and immunized with 1×10^7 pfu/50 µL of rAd-F0 or rAd-LacZ or 1×10^4 live RSV B1 via the intranasal (i.n.) route. Twenty days later, the mice were given booster immunization i.n. with the same dose. After 10 days of boost, mice were sacrificed and splenocytes were isolated for the cytokine ELISPOT assay. For peptide-based vaccination, transgenic mice were immunized subcutaneously (s.c.) with 50 µg of the individual synthetic peptides emulsified in 25 µL of incomplete Freund's adjuvant (IFA) (Sigma-Aldrich) and then boosted after 10 days s.c. with the same dose of the respective peptides mixed with IFA. Mice were sacrificed 7 days after the booster and splenocytes were isolated for in vitro peptide-restimulation. For challenge studies, 10^7 pfu of live RSV-B1 was administered i.n. seven days after the booster immunization with peptide vaccines. Mice were sacrificed on day 4 post-challenge and the lung tissues were collected and subjected to further analysis by flow cytometry, ELISA, CTL assay and immunohistochemistry. Mice body weight was monitored daily.
(§2) […] RBC-free splenocyte suspensions prepared from the individual mice were seeded in individual wells of 96-well filtration plates (Millipore) precoated with capturing monoclonal antibodies for murine IL-2, IL-4 or IFN-γ (0.5 µg/ well) (eBioscience) and blocked with conditioned medium (CM) for 1 hour at room temperature. The splenocytes were added with the individual RSV F 9-mer synthetic peptides (2 µg each) or GLC-9 dissolved in CM (100 µL). The splenocytes added with Con A (10 µg/mL) were used as positive control. Unstimulated splenocytes were used as negative control. The plates were kept in a 37°C incubator equilibrated with 5% CO2 for 48 hours. The individual wells of the ELISPOT plates were washed three times with washing buffer (0.05% tween20 in PBS, PBS-T), and then 0.2 µg of the corresponding biotinylated detection monoclonal antibodies specific for IL-2, IL-4 and IFN-γ were added to detect the respective cytokines. After 2 hours of incubation at room temperature, the plates were washed and 100 µl of streptavidin-alkaline phosphatase (1∶ 250 dilution) was added to the individual wells, and the plates were incubated at room temperature for 45 minutes. Finally, the plates were washed four times with the wash buffer, and 100 µl of AEC (3-amine-9-ethylcarbazole, Sigma-Aldrich) substrate was added to each well and allowed to react for 30 minutes at room temperature in the dark. The plates were then washed with water, air-dried overnight, and the spots per well were scored using the immunospot counting reader (C.T.L. IMMUNOSPOT, CELLULAR TECHNOLOGY LTD). Results were expressed as the number of cytokine-secreting cells per 5×10^5 splenocytes seeded in the initial culture.
(§3) Figure 1 Induction of IFN-γ and IL-2 in splenocytes from RSV F peptide immunized HLA-A*0201 transgenic mice upon secondary recall. Splenocytes harvested on day 30 from HLA-A-Tg B6 mice primed and boosted at 20 days interval intranasally with 10^7 pfu of rAd-F0 (□) or 10^4 pfu of RSV-B1 (▪)were restimulated with 2 µg of the individual RSV F peptide or 10 µg/ml Con A for 5 days in the presence of murine IL-2 . After stimulation, 5×10^5 splenocytes were seeded to anti-IFN-γ (A) or anti-IL-2 (B) capture antibody coated ELISPOT plates for 2 days for ELISPOT assay as described in Materials and Methods. Cytokine-positive immunospots were developed and the results are expressed as the number of immunospots +/−2 standard deviations for each experimental group. Data is representative of results derived from two independent experiments, each with five mice per group.

Assay [2] has the same test system. Put plainly: IL-2 ELISPOT of splenocytes restimulated with peptide. The assay is classed as cell-based, mouse. The following applies: for IL-2 ELISPOT, RSV: splenocytes of HLA-Tg B6 mice primed and boosted i.n. with 10^4 pfu RSV-B1; for IL-2 ELISPOT, RSV / IL-2 ELISPOT, rAd-F0: restimulated with 2 µg peptide, representative of two experiments, five mice per group; for IL-2 ELISPOT, rAd-F0: splenocytes of HLA-Tg B6 mice primed and boosted i.n. with 10^7 pfu rAd-F0; for IL-2 level in restimulated splenocytes (ELISPOT, text grading): splenocytes of rAd-F0- or RSV B1-primed and boosted HLA-Tg B6 mice, high = over 100 spots, moderate = over 50 spots. Here is the method:
as §1, §2, §3

Another assay concerns the target T1, HLA-A*0201 (Homo sapiens, UniProt P04439, D140Y/D185E/D98H/E176V/E277Q/G131W/G231S/I119V/I121R/I166T/I218V/L300P/L318F/N151K/N90K/P208A/P217A/Q86G/Q94H/R138H/R169H/T345S).
T1 construct: Human T2 cells (purchased from the American Type Culture Collection, ATCC) (ATCC No. CRL-1992) expressing the HLA-A*0201 gene; endogenous in cells; host or cells: human T2 cells (ATCC CRL-1992)
Put plainly: T2 cell-stabilization assay (T2-binding). The following applies: for T2-binding Ratio of MFI: T2 cells 5×10^5, peptide 50 µg/mL + β2-microglobulin 5 µg/mL, 28°C 16–18 h, then brefeldin A 10 µg/mL 37°C 3 h, FITC anti-HLA-A2, flow cytometry, MFI relative to negative control HCV C55-74 (set as 1). As to the method:
T2 cells (5×10^5) cultured in 96-well U-bottom plates were incubated with the individual 9-mer synthetic peptides (50 µg/mL) and β2-microglobulin (5 µg/mL; Sigma-Aldrich) at 28°C for 16–18 hours. Subsequently, brefeldin A (10 µg/mL) was added and the cells were incubated at 37°C for another 3 hours, then washed and stained with fluorescence isothiocyanate (FITC)-conjugated mouse anti-human HLA-A2 antibody (SeroTec). Peptide-loaded T2 cells were acquired and analyzed on the FACScan flow cytometer using CellQuest software (Becton Dickinson). GLC-9 peptide was used as positive control (PC). The mean fluorescence intensity (MFI) represents the binding affinity of each peptide compared to MFI (set as MFI = 1) obtained from negative control (NC), which is T2 cells loaded with HCV peptide C55-74.
Twenty-five 9-mer synthetic peptides derived from the RSV F glycoprotein sequence presumed to encompass HLA-A*0201 binding motifs were synthesized (Table 1). Each was tested for its ability to bind HLA-A*0201 molecules by T2 cell-based binding assay (data not shown). The relative mean fluorescence intensity (MFI) obtained from the positive control (PC) peptide derived from Epstein-Barr virus capsid protein (GLC-9, a previously defined HLA-A*0201-restricted CTL epitope) was twofold (MFI = 1.96) compared to the baseline MFI = 1 obtained from the negative control (NC) treated with an unrelated peptide HCV C55-74 (a C57BL/6-specific CD4 epitope). […] The remaining peptides had no detectable binding to the HLA-A*0201 molecules. Apparently, the different MFIs generated by binding of RSV F-derived peptides to HLA-A*0201 reflects on the binding specificity of different peptides to a given HLA molecule.

With “11: HLA-A*0201-restricted 9-mer synthetic peptide from F protein of RSV-B1 strain (SLSNGVSVL) [compound 11]”, in assay [1], the “IFN-γ ELISPOT, RSV” value is on record as 200 cytokine-secreting cells per 5×10^5 splenocytes; the “IFN-γ ELISPOT, rAd-F0” value was 68.5 cytokine-secreting cells per 5×10^5 splenocytes; the “IFN-γ level in restimulated splenocytes (ELISPOT, text grading)” value (“IFN-γ level in restimulated splenocytes” for short) is reported as “over 100 spots”. Moreover, in assay [2], the “IL-2 ELISPOT, RSV” value is reported as 56.5 cytokine-secreting cells per 5×10^5 splenocytes; the “IL-2 ELISPOT, rAd-F0” value is given as 51.5 cytokine-secreting cells per 5×10^5 splenocytes; the “IL-2 level in restimulated splenocytes (ELISPOT, text grading)” value (from here on “IL-2 level in restimulated splenocytes”) was “over 50 spots”. Moreover, the “T2-binding Ratio of MFI” value in the assay with HLA-A*0201 was 1.06.
Turning to “12: HLA-A*0201-restricted 9-mer synthetic peptide from F protein of RSV-B1 strain (VLTSKVLDL) [compound 12]”, in assay [1], the “IFN-γ ELISPOT, RSV” value is 116.5 cytokine-secreting cells per 5×10^5 splenocytes; the “IFN-γ ELISPOT, rAd-F0” value was 95.5 cytokine-secreting cells per 5×10^5 splenocytes; the “IFN-γ level in restimulated splenocytes” value is given as “over 100 spots”. In addition, in assay [2], the “IL-2 ELISPOT, RSV” value was 36 cytokine-secreting cells per 5×10^5 splenocytes and the “IL-2 ELISPOT, rAd-F0” value is listed as 44 cytokine-secreting cells per 5×10^5 splenocytes. The “T2-binding Ratio of MFI” value in the assay with HLA-A*0201 is recorded as 0.99.
For the substance “15: HLA-A*0201-restricted 9-mer synthetic peptide from F protein of RSV-B1 strain (KLMSNNVQI) [compound 15]”, in assay [1], the “IFN-γ ELISPOT, RSV” value is listed as 0 cytokine-secreting cells per 5×10^5 splenocytes and the “IFN-γ ELISPOT, rAd-F0” value is listed as 39 cytokine-secreting cells per 5×10^5 splenocytes. For the same substance, in assay [2], the “IL-2 ELISPOT, RSV” value is listed as 59.5 cytokine-secreting cells per 5×10^5 splenocytes; the “IL-2 ELISPOT, rAd-F0” value is listed as 37 cytokine-secreting cells per 5×10^5 splenocytes; the “IL-2 level in restimulated splenocytes” value is “over 50 spots”. Also, the “T2-binding Ratio of MFI” value with HLA-A*0201 was found to be 1.51.
With “16: HLA-A*0201-restricted 9-mer synthetic peptide from F protein of RSV-B1 strain (LMSNNVQIV) [compound 16]”, in assay [1], the “IFN-γ ELISPOT, RSV” value is given as 28 cytokine-secreting cells per 5×10^5 splenocytes; the “IFN-γ ELISPOT, rAd-F0” value was 54 cytokine-secreting cells per 5×10^5 splenocytes; the “IFN-γ level in restimulated splenocytes” value is on record as “over 50 spots”. Also, in assay [2], the “IL-2 ELISPOT, RSV” value is reported as 50.5 cytokine-secreting cells per 5×10^5 splenocytes; the “IL-2 ELISPOT, rAd-F0” value is on record as 52 cytokine-secreting cells per 5×10^5 splenocytes; the “IL-2 level in restimulated splenocytes” value is “over 50 spots”. In the assay with HLA-A*0201, the “T2-binding Ratio of MFI” value is reported as 1.60.
On to “18: HLA-A*0201-restricted 9-mer synthetic peptide from F protein of RSV-B1 strain (SVGNTLYYV) [compound 18]”, for which, in assay [1], the “IFN-γ ELISPOT, RSV” value is reported as 92.5 cytokine-secreting cells per 5×10^5 splenocytes; the “IFN-γ ELISPOT, rAd-F0” value is on record as 115 cytokine-secreting cells per 5×10^5 splenocytes; the “IFN-γ level in restimulated splenocytes” value is “over 100 spots”. For the same substance, in assay [2], the “IL-2 ELISPOT, RSV” value is on record as 42 cytokine-secreting cells per 5×10^5 splenocytes and the “IL-2 ELISPOT, rAd-F0” value was 0 cytokine-secreting cells per 5×10^5 splenocytes. Moreover, the “binding affinity, MFI higher than the baseline” value in the assay with HLA-A*0201 (T2 cell-based binding assay, baseline = negative control HCV C55-74, called modest binding affinity) was about 10%. For the same substance, in the assay with HLA-A*0201, the “T2-binding Ratio of MFI” value came out at 1.29.
On to “19: HLA-A*0201-restricted 9-mer synthetic peptide from F protein of RSV-B1 strain (KINQSLAFI) [compound 19]”, for which, in assay [1], the “IFN-γ ELISPOT, RSV” value was 7.5 cytokine-secreting cells per 5×10^5 splenocytes; the “IFN-γ ELISPOT, rAd-F0” value was 200 cytokine-secreting cells per 5×10^5 splenocytes; the “IFN-γ level in restimulated splenocytes” value is “over 100 spots”. Besides, in assay [2], the “IL-2 ELISPOT, RSV” value is recorded as 36.5 cytokine-secreting cells per 5×10^5 splenocytes; the “IL-2 ELISPOT, rAd-F0” value is reported as 52 cytokine-secreting cells per 5×10^5 splenocytes; the “IL-2 level in restimulated splenocytes” value is recorded as “over 50 spots”. For the same substance, in the assay with HLA-A*0201, the “T2-binding Ratio of MFI” value is 1.08.
